Results as given in patent US11447486B2, “2-amino-benzimidazole derivatives and their use as 5-lipoxygenase and/or prostaglandin E synthase inhibitors” (INSTITUT PASTEUR KOREA, priority 2014, dated 2022).

Assays:
human 5-LOX = target: T1, human 5-LOX (Homo sapiens, UniProt P09917); assay: 5-LOX enzyme activity, fluorescence method (5-HPETE, H2DCFDA); type: biochemical; details: read-out: 5-LO (IC50)
T1 construct: purchased Cayman 60402; host or cells: insect cells (lysate)
T1 sequence (P09917 1-674): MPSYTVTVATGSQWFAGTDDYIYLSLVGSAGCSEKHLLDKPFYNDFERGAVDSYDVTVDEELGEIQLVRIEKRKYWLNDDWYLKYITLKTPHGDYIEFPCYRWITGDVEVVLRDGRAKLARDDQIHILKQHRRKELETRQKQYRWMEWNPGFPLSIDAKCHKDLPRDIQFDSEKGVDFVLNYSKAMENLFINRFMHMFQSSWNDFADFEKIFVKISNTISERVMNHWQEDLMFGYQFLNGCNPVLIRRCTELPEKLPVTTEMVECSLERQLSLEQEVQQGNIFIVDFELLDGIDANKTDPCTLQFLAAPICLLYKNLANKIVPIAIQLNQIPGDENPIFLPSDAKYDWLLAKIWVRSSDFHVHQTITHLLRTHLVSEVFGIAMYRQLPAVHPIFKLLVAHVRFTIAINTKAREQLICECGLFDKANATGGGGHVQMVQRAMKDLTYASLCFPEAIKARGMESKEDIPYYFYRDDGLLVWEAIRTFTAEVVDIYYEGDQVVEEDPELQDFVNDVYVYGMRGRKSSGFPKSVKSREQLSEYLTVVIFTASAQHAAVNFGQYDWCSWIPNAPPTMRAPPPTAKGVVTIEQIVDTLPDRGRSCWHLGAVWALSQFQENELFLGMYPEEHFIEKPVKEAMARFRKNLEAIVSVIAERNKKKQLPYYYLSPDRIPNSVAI
Summary of the method: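 Compound (0.5 nM to 10 uM) pre-incubated 5 min with enzyme; reaction started with ATP (100 uM final) and arachidonic acid (3 uM final). All steps at room temperature, fluorescence read-out.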

[1] = tested on: Rat basophilic leukemia (RBL) cells; assay: LTB4 secretion assay in RBL (rat basophilic leukemia cells); type: cell-based; details: Rattus norvegicus, RBL
Summary of the method: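 Cells seeded 2×10^4/well the day before, then pre-incubated 15 min at 37 °C in EMEM/0.5% FBS with compound (5 nM to 100 uM). Stimulation with 2.5 uM arachidonic acid plus 5 uM A23187 (final) for 10 min at 37 °C; LTB4 in supernatant quantified by EIA.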

Rat whole blood (RWB) = assay: LTB4 secretion assay in RWB (rat whole blood); type: cell-based; details: Rattus norvegicus
Summary of the method: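 Heparinized blood from male Sprague Dawley rats (6-9 weeks) diluted 1:1 in RPMI, pre-incubated 15 min at 37 °C with compound (2.5 nM to 50 uM). Stimulated with 10 uM calcium ionophore A23187 for 10 min at 37 °C, stopped with ice-cold PBS; LTB4 in supernatant quantified by EIA.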

Compound | IC50 (human 5-LOX) | EC50 [1] | EC50 (Rat whole blood (RWB))
CCn1c(NCc2ccc(Oc3ncc(C(F)(F)F)cn3)cc2F)nc2ccc(NC3COC3)cc21 [Compound 542] | < 1 µM | < 10 µM | < 10 µM
CN(c1ccc2nc(NCc3ccc(Oc4ccc(Cl)cn4)cc3)n(C)c2c1)C1COC1 [Compound 277] | < 1 µM | < 10 µM | < 10 µM
Cn1nc(C(F)(F)F)cc1Nc1ccc2nc(NCc3ccc(Oc4ncc(Cl)cn4)cc3)n(C)c2c1 [Compound 526] | 1 to 10 µM | < 10 µM | < 10 µM
Cn1c(NCc2ccc(Oc3ncc(C(F)(F)F)cn3)cc2)nc2ccc(NC3COC3)cc21 [Compound 374] | < 1 µM | < 10 µM | < 10 µM
Cn1c(NCc2ccc(Oc3ccc(Cl)nc3)cc2)nc2ccc(NC3COC3)cc21 [Compound 281] | < 1 µM | < 10 µM | < 10 µM
Cn1c(NCc2ccc(Oc3ncc(Cl)cn3)cc2)nc2ccc(Nc3cc(C(C)(C)C)[nH]n3)cc21 [Compound 469] | < 1 µM | < 10 µM | < 10 µM
Nc1nc2ccc(Nc3n[nH]cc3C(=O)NC3CC3)cc2n1CCOc1ccc(OC(F)(F)F)cc1 [Compound 17] | 1 to 10 µM | < 10 µM | > 20 µM
Nc1ccc2c(c1)nc(N1CCC1)n2CCOc1ccc(OC(F)(F)F)cc1 [Compound 70] | < 1 µM | < 10 µM | > 20 µM
Cn1c(NCc2ccc(Oc3nc4ccccc4n3C)cc2)nc2ccc(NC3COC3)cc21 [Compound 357] | < 1 µM | < 10 µM | 10 to 20 µM
Cn1c(NCc2ccc(Oc3ccc(F)cn3)cc2)nc2ccc(NC3COC3)cc21 [Compound 302] | < 1 µM | < 10 µM | 10 to 20 µM
Cn1c(NCc2ccc(Oc3cccnc3)cc2)nc2ccc(NC3COC3)cc21 [Compound 227] | < 1 µM | < 10 µM | < 10 µM
Cn1nc(Nc2ccc3nc(NCc4ccc(Oc5ccc(Cl)cn5)cc4)n(C)c3c2)cc1C(F)(F)F [Compound 502] | 1 to 10 µM | < 10 µM | < 10 µM
Nc1ccc2nc(NC3CCCC3)n(Cc3ccc(Oc4ccc(Cl)cc4)cc3)c2c1 [Compound 161] | < 1 µM | < 10 µM | 10 to 20 µM
c1ccc(Oc2ccc(CNc3nc4cc(NC5CCCC5)ccc4[nH]3)cc2)cc1 [Compound 97] | < 1 µM | < 10 µM | < 10 µM
Cn1c(NCc2ccc(Oc3ncc(Cl)cn3)c(Cl)c2)nc2ccc(NC3COC3)cc21 [Compound 392] | < 1 µM | < 10 µM | < 10 µM
Cc1cc(Nc2ccc3nc(NCc4ccc(Oc5ncc(Cl)cn5)cc4)[nH]c3c2)n[nH]1 [Compound 470] | < 1 µM | < 10 µM | < 10 µM
Cn1nc(C(F)F)cc1Nc1ccc2nc(NCc3ccc(Oc4ncc(Cl)cn4)cc3)n(C)c2c1 [Compound 533] | < 1 µM | < 10 µM | < 10 µM
Cn1ccc(Nc2ccc3nc(NCc4ccc(Oc5ncc(Cl)cn5)cc4)n(C)c3c2)n1 [Compound 414] | < 1 µM | < 10 µM | < 10 µM
Clc1ccc(Oc2ccc(CNc3nc4cc(NC5COC5)ccc4[nH]3)cc2)cc1 [Compound 125] | < 1 µM | < 10 µM | < 10 µM
Cn1c(NCc2ccc(COc3ccc(Cl)cn3)cc2)nc2ccc(NC3COC3)cc21 [Compound 305] | < 1 µM | < 10 µM | > 20 µM
Nc1ccc2nc(N)n(Cc3ccc(Oc4ccc(Cl)cc4)cn3)c2c1 [Compound 239] | < 1 µM | < 10 µM | < 10 µM
Cc1cnc(Nc2ccc3nc(NCc4ccc(Oc5ncc(Cl)cn5)cc4)n(C)c3c2)s1 [Compound 492] | < 1 µM | < 10 µM | < 10 µM
Cn1c(NCc2ccc(Oc3ncc(Cl)cn3)cc2)nc2c(F)cc(NC3COC3)cc21 [Compound 554] | < 1 µM | 10 to 20 µM | < 10 µM
Cc1cc(Nc2ccc3nc(NCc4ccc(Oc5ncc(Cl)cn5)cc4)n(C)c3c2)nn1C [Compound 465] | < 1 µM | < 10 µM | < 10 µM
CC(Nc1nc2cc(N)ccc2[nH]1)c1ccc(Oc2ccc(Cl)cc2)cc1 (stereo not drawn) [Compound 110] | < 1 µM | < 10 µM | < 10 µM
Cn1c(NCc2ccc(Oc3ccc(Cl)cn3)cc2)nc2ccc(Nc3ccccn3)cc21 [Compound 448] | 1 to 10 µM | < 10 µM | < 10 µM
Cn1c(NCc2ccc(Oc3ccc(Cl)cn3)cc2F)nc2ccc(NC3COC3)cc21 [Compound 273] | < 1 µM | < 10 µM | 10 to 20 µM
CCn1c(NCc2ccc(Oc3ccc(Cl)cn3)cc2)nc2ccc(NC3COC3)cc21 [Compound 270] | < 1 µM | < 10 µM | < 10 µM

The next lines start with the values.

IC50 (human 5-LOX) | EC50 [1] | EC50 (Rat whole blood (RWB)) | Compound
< 1 µM | < 10 µM | < 10 µM | Nc1nc2ccc(NC3COC3)cc2n1Cc1ccc(Oc2ccc(Cl)cc2)cc1 [Compound 231]
< 1 µM | < 10 µM | < 10 µM | Cn1c(NCc2ccc(Oc3ncc(Cl)cn3)cc2)nc2ccc(N)cc21 [Compound 288]
< 1 µM | < 10 µM | < 10 µM | Cc1cc(Nc2ccc3nc(NCc4ccc(Oc5ncc(C(F)(F)F)cn5)cc4)n(C)c3c2)n[nH]1 [Compound 479]
< 1 µM | < 10 µM | < 10 µM | Cn1c(NCc2ccc(Oc3ccc(C(F)(F)F)cn3)cc2F)nc2ccc(NC3COC3)cc21 [Compound 546]
< 1 µM | < 10 µM | < 10 µM | Cc1cc(Nc2ccc3nc(NCc4ccc(Oc5ccc(Cl)cn5)cc4)n(C)c3c2)n[nH]1 [Compound 466]
< 1 µM | < 10 µM | < 10 µM | CC(C)(C)Nc1nc2ccc(N)cc2n1CCOc1ccc(OC(F)(F)F)cc1 [Compound 65]
< 1 µM | 10 to 20 µM | < 10 µM | Cn1c(NCc2ccc(Oc3ccc(C#N)cn3)cc2)nc2ccc(NC3COC3)cc21 [Compound 351]
< 1 µM | > 20 µM | > 20 µM | Cn1c(NCc2ccc(Oc3ccc(Cl)cn3)nc2)nc2ccc(NC3COC3)cc21 [Compound 309]
< 1 µM | < 10 µM | 10 to 20 µM | Nc1ccc2nc(N3CCCC3)n(CCOc3ccc(OC(F)(F)F)cc3)c2c1 [Compound 51]
< 1 µM | < 10 µM | > 20 µM | CNc1nc2ccc(N)cc2n1Cc1ccc(Oc2ccc(Cl)cc2)cc1 [Compound 219]
< 1 µM | < 10 µM | < 10 µM | Nc1ccc2nc(NCCO)n(Cc3ccc(Oc4ccc(Cl)cc4)cc3)c2c1 [Compound 155]
< 1 µM | > 20 µM | < 10 µM | Cn1c(NCc2ccc(Oc3ncccn3)cc2)nc2ccc(NC3COC3)cc21 [Compound 345]
> 10 µM | < 10 µM | < 10 µM | CCC(Nc1nc2ccc(Nc3cc(C(F)(F)F)n(C)n3)cc2n1C)c1ccc(Oc2ncc(C(F)(F)F)cn2)cc1F (stereo not drawn) [Compound 528]
< 1 µM | < 10 µM | > 20 µM | CN(C)c1nc2cc(N)ccc2n1CCOc1ccc(Cl)cc1 [Compound 38]
< 1 µM | < 10 µM | < 10 µM | Nc1ccc2[nH]c(NCc3ccc(Oc4ccc(Cl)cn4)cc3)nc2c1 [Compound 138]
< 1 µM | < 10 µM | < 10 µM | CCC(Nc1nc2ccc(NC3COC3)cc2n1C)c1ccc(Oc2ncc(C(F)(F)F)cn2)cc1 (stereo not drawn) [Compound 547]
< 1 µM | < 10 µM | < 10 µM | Cn1c(NCc2ccc(Oc3ccc(OC(F)(F)F)cn3)cc2)nc2ccc(NC3COC3)cc21 [Compound 378]
< 1 µM | < 10 µM | < 10 µM | Nc1ccc2[nH]c(NCc3ccc(Sc4ccc(Cl)cc4)cc3)nc2c1 [Compound 92]
1 to 10 µM | < 10 µM | < 10 µM | CCn1c(NCc2ccc(Oc3ncc(C(F)(F)F)cn3)cc2)nc2ccc(Nc3n[nH]c(C)c3Cl)cc21 [Compound 508]
< 1 µM | < 10 µM | < 10 µM | Cn1c(NCc2ccc(Oc3ccc(Cl)cn3)c(F)c2)nc2ccc(NC3COC3)cc21 [Compound 268]
